# In PMC6736837, “^18F-labelled triazolyl-linked argininamides targeting the neuropeptide Y Y1R for PET imaging of mammary carcinoma” (Scientific Reports, 2019):
# Key:
# hY1R = biological target: T1, hY1R (Homo sapiens, UniProt P25929); experiment: Y1R competition binding with [^3H]UR-MK299 on SK-N-MC neuroblastoma cells; conditions: displacement of [^3H]UR-MK299, SK-N-MC neuroblastoma cells
# T1 construct: endogenous in cells; host or cells: SK-N-MC neuroblastoma cells
# T1 sequence (P25929 1-384): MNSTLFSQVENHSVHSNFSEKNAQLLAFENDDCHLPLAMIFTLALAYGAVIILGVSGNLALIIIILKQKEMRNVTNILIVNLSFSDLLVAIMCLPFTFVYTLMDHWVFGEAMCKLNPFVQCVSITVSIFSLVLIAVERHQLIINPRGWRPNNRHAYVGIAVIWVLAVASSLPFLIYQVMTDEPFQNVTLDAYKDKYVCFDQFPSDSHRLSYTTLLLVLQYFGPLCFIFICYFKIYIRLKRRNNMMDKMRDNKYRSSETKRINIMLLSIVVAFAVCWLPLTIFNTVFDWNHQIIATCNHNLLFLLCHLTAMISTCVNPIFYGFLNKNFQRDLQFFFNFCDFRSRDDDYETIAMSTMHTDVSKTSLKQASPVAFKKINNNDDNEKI
# Protocol: (§1) Data analysis (four-parameter sigmoidal fitting of specifically bound radioligand plotted against log(concentration) competitor) was performed using SigmaPlot (Systat Software, San Jose, CA, USA) (Y1R binding). IC50 values were converted to Ki values according to the Cheng-Prusoff equation[24].
# hY2R = biological target: T2, hY2R (Homo sapiens, UniProt P49146); experiment: Competition binding on CHO-hY2-Gqi5-mtAEQ cells with [^3H]propionyl-pNPY; conditions: for selectivity for Y1R over Y2R (multiple of the Ki value for Y1R): calculated from Ki values; for binding to Y2R (in words): maximum concentration of 10 µM
# T2 construct: expressed in transfected cells; host or cells: CHO cells (CHO-hY2-Gqi5-mtAEQ)
# T2 sequence (P49146 1-381): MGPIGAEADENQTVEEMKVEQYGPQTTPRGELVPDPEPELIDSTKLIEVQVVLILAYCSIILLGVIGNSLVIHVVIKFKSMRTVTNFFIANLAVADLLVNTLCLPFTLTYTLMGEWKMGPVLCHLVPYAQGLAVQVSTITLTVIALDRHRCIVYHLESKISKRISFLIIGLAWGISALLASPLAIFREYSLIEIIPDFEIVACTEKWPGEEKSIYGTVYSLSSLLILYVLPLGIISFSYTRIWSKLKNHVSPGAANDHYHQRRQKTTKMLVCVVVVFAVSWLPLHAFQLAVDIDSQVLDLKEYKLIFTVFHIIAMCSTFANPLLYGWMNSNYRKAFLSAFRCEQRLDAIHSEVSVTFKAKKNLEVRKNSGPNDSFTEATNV
# Protocol: as §1
# (§2) Table S1: Structures, in-vitro Y1 receptor affinities and selectivities of potential Y1R PET radioligands. For Y2R, Y4R and Y5R, Ki values are given in the first row. In the second row, the calculated selectivities for Y1R over Y2R, Y4R and Y5R are given as a multiple of the Ki value for […]
# (§3) compound structure hY1R hY2R hY4R hY5R
# (§4) Ki ± SEMa Kiselectivity selectivity selectivity […]
# (§5) aDetermined by competition binding on SK-N-MC neuroblastoma cells using the radioligand [3H]UR-MK2994.
# (§6) Mean Ki values ± SEM are the results of three individual experiments each performed in triplicate. bDetermined by competition binding at CHO-hY2-Gqi5-mtAEQ cells and HEC-1b hY5R cells using the radioligand [3H]propionyl-pNPY. Two independent experiments were performed in triplicate. cDetermined by competition binding on CHO-hY4R-Gqi5-mtAEQ cells using the radioligand [3H]UR-KK200.
# (§7) Two independent experiments were performed in triplicate.
# (§8) SEM = standard error of the mean. […]
# hY4R = biological target: T3, hY4R (Homo sapiens, UniProt P50391); experiment: Competition binding on CHO-hY4R-Gqi5-mtAEQ cells with [^3H]UR-KK200; conditions: for Ki: CHO-hY4R-Gqi5-mtAEQ cells, [^3H]UR-KK200; for selectivity for Y1R over Y4R (multiple of the Ki value for Y1R): calculated from Ki values; for binding to Y4R (in words): maximum concentration of 10 µM
# T3 construct: expressed in transfected cells; host or cells: CHO cells (CHO-hY4R-Gqi5-mtAEQ)
# T3 sequence (P50391 whole entry): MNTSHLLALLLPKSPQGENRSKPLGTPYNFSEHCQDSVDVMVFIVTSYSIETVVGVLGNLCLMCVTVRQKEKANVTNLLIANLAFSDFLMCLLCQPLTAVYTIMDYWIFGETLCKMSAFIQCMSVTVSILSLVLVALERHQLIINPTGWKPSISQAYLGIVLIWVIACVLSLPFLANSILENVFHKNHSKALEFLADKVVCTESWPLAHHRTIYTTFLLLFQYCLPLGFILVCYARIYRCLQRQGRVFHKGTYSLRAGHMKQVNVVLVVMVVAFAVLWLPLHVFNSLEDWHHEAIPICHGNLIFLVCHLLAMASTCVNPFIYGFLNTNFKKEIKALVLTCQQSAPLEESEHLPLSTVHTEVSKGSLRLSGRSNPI
# Protocol: as §1, §2, §3, §4, §5, §6, §7, §8
# hY5R = biological target: T4, hY5R (Homo sapiens, UniProt Q15761); experiment: Competition binding on HEC-1b hY5R cells with [^3H]propionyl-pNPY; conditions: for selectivity for Y1R over Y5R (multiple of the Ki value for Y1R): calculated from Ki values; for binding to Y5R (in words): maximum concentration of 10 µM
# T4 construct: expressed in transfected cells; host or cells: HEC-1b cells (HEC-1b hY5R)
# T4 sequence (Q15761 1-445): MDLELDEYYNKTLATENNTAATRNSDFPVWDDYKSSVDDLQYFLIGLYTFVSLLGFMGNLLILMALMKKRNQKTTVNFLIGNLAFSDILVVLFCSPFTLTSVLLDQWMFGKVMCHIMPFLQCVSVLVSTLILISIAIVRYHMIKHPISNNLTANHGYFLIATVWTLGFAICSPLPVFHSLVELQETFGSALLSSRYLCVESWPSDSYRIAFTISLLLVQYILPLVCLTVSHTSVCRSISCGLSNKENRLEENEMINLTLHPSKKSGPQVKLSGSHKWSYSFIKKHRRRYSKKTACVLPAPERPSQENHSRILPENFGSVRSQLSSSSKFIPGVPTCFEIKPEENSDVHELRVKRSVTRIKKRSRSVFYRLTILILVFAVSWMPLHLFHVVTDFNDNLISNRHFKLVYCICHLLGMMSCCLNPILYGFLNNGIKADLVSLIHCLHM
# Protocol: as §1, §2, §3, §4, §5, §6, §7, §8
SMILES,Ki (hY1R),Ki (hY2R),selectivity for Y1R over Y2R (multiple of the Ki value for Y1R) (hY2R),binding to Y2R (in words) (hY2R),Ki (hY4R),selectivity for Y1R over Y4R (multiple of the Ki value for Y1R) (hY4R),binding to Y4R (in words) (hY4R),Ki (hY5R),selectivity for Y1R over Y5R (multiple of the Ki value for Y1R) (hY5R),binding to Y5R (in words) (hY5R)
"N/C(=N/C(=O)NCc1cn(CCOCCOCCOCCF)nn1)NCCC[C@@H](NC(=O)C(c1ccccc1)c1ccccc1)C(=O)NCc1ccc(O)cc1 [compound 13, (2R)‐5‐{[(1Z)‐Amino[({[1‐(2‐{2‐[2‐(2‐fluoroethoxy)ethoxy]ethoxy}ethyl)‐1H‐1,2,3‐triazol‐4‐yl]methyl}carbamoyl)imino]methyl]amino}‐2‐(2,2‐diphenylacetamido)‐N‐[(4‐hydroxyphenyl)-methyl]pentanamide]",0.029 µM,> 5 µM,> 173 ×,None of the three compounds showed considerable binding,> 10 µM,> 345 ×,None of the three compounds showed considerable binding,> 10 µM,> 345 ×,None of the three compounds showed considerable binding
"N/C(=N/C(=O)NCc1cn([C@@H]2OC(CF)[C@@H](O)C(O)C2O)nn1)NCCC[C@@H](NC(=O)C(c1ccccc1)c1ccccc1)C(=O)NCc1ccc(O)cc1 (stereo partly drawn) [compound 11, (2R)‐5‐{[(1Z)‐Amino({[({1‐[(2R,5S)‐6‐(fluoromethyl)‐3,4,5‐trihydroxyoxan‐2‐yl]‐1H‐1,2,3‐triazol‐4‐yl}methyl)carbamoyl]imino})methyl]amino}‐2‐(2,2‐diphenylacetamido)‐N‐[(4‐hydroxyphenyl)-methyl]pentanamide]",0.208 µM,> 10 µM,> 48 ×,None of the three compounds showed considerable binding,> 3 µM,> 14 ×,None of the three compounds showed considerable binding,> 15 µM,> 72 ×,None of the three compounds showed considerable binding
"N/C(=N/C(=O)NCc1cn(CCOCCF)nn1)NCCC[C@@H](NC(=O)C(c1ccccc1)c1ccccc1)C(=O)NCc1ccc(O)cc1 [compound 12, (2R)‐5‐{[(1Z)‐Amino({[({1‐[2‐(2‐fluoroethoxy)ethyl]‐1H‐1,2,3‐triazol‐4‐yl}methyl)carbamoyl]-imino})methyl]amino}‐2‐(2,2‐diphenylacetamido)‐N‐[(4‐hydroxyphenyl)methyl]pentanamide]",0.0028 µM,> 10 µM,> 3610 ×,None of the three compounds showed considerable binding,> 10 µM,> 3610 ×,None of the three compounds showed considerable binding,> 15 µM,> 5415 ×,None of the three compounds showed considerable binding
C#CCNC(=O)N=C(N)NCCC[C@@H](NC(=O)C(c1ccccc1)c1ccccc1)C(=O)NCc1ccc(O)cc1 [compound 7],0.00094 µM,,,,,,,,,
